Literature values as cited in patent US20130095180A1, “TIME-DELAYED SUSTAINED RELEASE PHARMACEUTICAL COMPOSITION COMPRISING DAPOXETINE FOR ORAL ADMINISTRATION” (NAVIPHARM. CO., LTD., priority 2010, published 2013).

Conditions: background characteristics of the drug

Half Life | Tmax | Compound
4 to 5 h | 0.7 h | CCCc1nc(C)c2c(=O)[nH]c(-c3cc(S(=O)(=O)N4CCN(CC)CC4)ccc3OCC)nn12 [Vardenafil]
3 to 4 h | – | CCCc1nn(C)c2c(=O)[nH]c(-c3cc(S(=O)(=O)N4CCN(C)CC4)ccc3OCC)nc12 [Sildenafil]

More lines, now with the values behind:

Compound | Half Life | Tmax
COc1ccc(CN=c2[nH]c(N3CCC[C@H]3CO)ncc2C(=O)NCc2ncccn2)cc1Cl [Avanafil] | 5 to 11 h | 0.3 to 0.5 h
CN(C)[C@@H](CCOc1cccc2ccccc12)c1ccccc1 [Dapoxetine, (S)-(+)-N,N-dimethyl-1-phenyl-3-(1-Naphthalenyloxy)-propaneamine] | – | about 1 hour
CCCOc1ccc(S(=O)(=O)NCCC2CCCN2C)cc1-c1nc2c(CCC)nn(C)c2c(=O)[nH]1 (centres unmarked) [Udenafil] | 7 to 12 h | 1 h
